Experimental data published in ChEMBL document CHEMBL3392960, “Discovery of thienoimidazole-based HCV NS5A inhibitors. Part 1: C2-symmetric inhibitors with diyne and biphenyl linkers” (Bioorg Med Chem Lett, 2015).

How the values were obtained:
Hepatitis C virus [1] = experiment: Antiviral activity against Hepatitis C virus genotype 1a infected in W11.8 cells assessed as decrease in NS5A expression in replicon cell after 4 days by luminescence based ELISA; assay type: functional, Hepacivirus hominis; settings: subtype 1a, W11.8, 96 h
Hepatitis C virus [2] = experiment: Antiviral activity against Hepatitis C virus genotype 1b infected in human Huh-5.2 cells assessed as decrease in HCV replicon RNA replication after 4 days by luciferase assay; assay type: functional, cell-based, Hepacivirus hominis; settings: Huh-5-2, 96 h
[3] = Cytotoxicity against human HuhET cells by [3H]thymidine incorporation assay; assay type: cell-based
[4] = Clearance in iv dosed Sprague-Dawley rat; assay type: ADME, organism-based; settings: in vivo
[5] = Half life in iv dosed Sprague-Dawley rat; assay type: ADME, organism-based; settings: in vivo
[6] = Volume of distribution at steady state in iv dosed Sprague-Dawley rat; assay type: ADME, organism-based; settings: in vivo, read-out: Vdss

| Compound | EC50 (Hepatitis C virus [1]) [nM] | EC50 (Hepatitis C virus [2]) [nM] | CC50 [3] [nM] | clearance [4] [mL/min/kg] | half-life [5] [h] | Vd [6] [L/kg] |
| --- | --- | --- | --- | --- | --- | --- |
| COC(=O)N[C@H](C(=O)N1CCC[C@H]1c1nc2sc(C#CC#Cc3cc4[nH]c([C@@H]5CCCN5C(=O)[C@@H](NC(=O)OC)C(C)C)nc4s3)cc2[nH]1)C(C)C | 281 | 0.386 | 6100 | 8.2 | 5.2 | 3.3 |
| COC(=O)N[C@H](C(=O)N1C[C@@H](C)C[C@H]1c1nc2sc(C#CC#Cc3cc4[nH]c([C@@H]5C[C@H](C)CN5C(=O)[C@@H](NC(=O)OC)C(C)C)nc4s3)cc2[nH]1)C(C)C | 184 | 0.17 | > 20000 |  |  |  |
| COC(=O)N[C@H](C(=O)N1C[C@@H](C)C[C@H]1c1nc2sc(-c3ccc(-c4ccc(-c5cc6[nH]c([C@@H]7C[C@H](C)CN7C(=O)[C@@H](NC(=O)OC)C(C)C)nc6s5)cc4)cc3)cc2[nH]1)C(C)C | 6 | 0.006 | > 20000 | 8 | 4.5 | 2.2 |
